{"source": "patent US6159953A", "about": "“Anti-malarial composition and method of use” (Catholic University of America, priority 1992, dated 2000)", "key": {"[1]": {"test_system": "IMR-90 human lung fibroblast cells", "assay": "Toxicity to cultured IMR-90 cells, number of viable cells", "format": "cell-based", "description": "(§1) 2. Effects of orotate analogues on cell viability and the ability to synthesize nucleic acids from radioactive precursors, and the rescuing effects of normal pyrimidine bases or nucleosides or amino acid derivatives such as histidinol, can be tested in human-derived tissue culture cell lines. Human HT-1080 human sarcoma cells [Rusheed, S., et al., Cancer, 33:1027-30 (1974)], human diploid IMR-90 cells [Nichols, W. W., et al., Science, 196:60-3 (1977)], human cervical […] HeLa S3 cells [Puck, T. T., et al., J. Exp. Med., 103:273-84 (1956)], HL-60 human myeloid leukemia cells [Collins, S. J., et al., Nature, 270:347-9 (1977)], and mouse leukemia L-1210 cells [Moore, G. E., J. Nat. […] The growth medium most suitable for each cell line can be determined by reference to the publications cited above: briefly, HT-1080 cells are maintained in Eagle's Minimal Essential Medium (EMEM) supplemented with 5% fetal bovine serum (FBS) and 2 mM L-glutamine; IMR-90 cells are grown in EMEM supplemented with 10% FBS, 10 mM Hepes buffer, 0.21% NaHCO3, and 2 mM L-glutamine. […]\n(§2) Toxicity of pyrimidine analogues to cultured human cells is determined as follows. […] Thereafter, the number of cells in each well is determined. […] Cells that grow in suspension (e.g., HL-60 and L-1210 cells) are transferred to centrifuge tubes, pelleted at low speed, washed, and the viability determined as above. […]"}, "[2]": {"assay": "Host toxicity in P. yoelii-infected mice (diarrhea, weight loss, tolerance)", "format": "in vivo, Swiss white mice", "description": "FIG. 6 illustrates the weight changes in mice receiving 5 mg/kg of 5-fluoro-orotate without (Δ) or with (.tangle-solidup.) uridine. The pyrimidine analogue was administered on days 3 to 6. The pyrimidine nucleoside was given to mice in experiment 2 on days 3 to 9. Data points represent mean weights of mice that remained alive during the course of experiments 1 and 2 (see FIG. 5C). Error bars represent standard deviations from the mean.\nA second in vivo test system can be used to determine if repeated administration of the pyrimidine analogue would have safe anti-malarial activity. In this test system, groups of animals are infected with malaria parasites. At a time when blood parasitemia is reached, the animals are injected with saline alone (control) or with various concentrations of one or more pyrimidine analogues alone or together with one or more rescuing pyrimidine bases or nucleosides at a single concentration, at intervals, over a period of several days. In order to determine the prophylactic effectiveness of the rescuing pyrimidine base or nucleoside, the animals are pretreated with such a base or nucleoside prior to the administration of the pyrimidine analogue. Anti-malarial activity of the treatments is estimated by determining blood parasitemia on the animals at appropriate times. The safety of the treatments is estimated by monitoring animals for weight loss and diarrhea, as these are early symptoms of pyrimidine analogue toxicity [Houghton, J. A., et al., Cancer Res., 39:2406-13 (1979)].\nSwiss white mice (25-30 g) were divided into groups of five. On day 0, each mouse was infected by intraperitoneal injection of 10^5 erythrocytic forms of P. yoelii. Starting on day 3, when the blood parasitemia had reached between 5 and 12%, the mice were injected intraperitoneally every 4 hours for three consecutive days with 200 μl of various formulations. In experiment 1, three groups of mice received 0.2, 1, or 5 mg/kg of 5-fluoro-orotate per injection, respectively. An accompanying control group received saline. In experiment 2, three groups of mice received 0.2, 1, or 5 mg/kg of 5-fluoro-orotate plus 800 mg/kg of uridine in a 200 μl saline formulation. An accompanying control group received 800 mg/kg of uridine alone. In experiment 2, mice were pretreated with one injection of 800 mg/kg of uridine two hours before receiving the first injection of 5-fluoro-orotate. Additionally, even though treatment with the pyrimidine analogue stopped on day 6, these mice continued to receive 1500 mg/kg of uridine, three times a day, for three additional days (i.e., up to day 9)."}, "[3]": {"test_system": "L-1210 mouse lymphocytic leukemia cells", "assay": "Toxicity to cultured L-1210 cells, number of viable cells", "format": "cell-based", "description": "as §1, §2"}}, "note": "Like-named read-outs stand apart in the source and are kept apart here."}
{"compound": "O=C(O)c1[nH]c(=O)[nH]c(=O)c1F", "note": "[5-fluoro-orotate]", "values": [{"measurement": "IC50", "setting": "[1]; IMR-90, with 1 mM uridine, read-out: IC50 With 1 mM Uridine", "value": 2200, "unit": "nM"}, {"measurement": "IC50", "setting": "[1]; IMR-90, without uridine, read-out: IC50 Without Uridine", "value": 1100, "unit": "nM"}, {"measurement": "tolerance of highest dose", "setting": "[2]; 5 mg/kg every 4 hours", "value": "tolerated only when uridine was administered in combination with 5-fluoro-orotate"}, {"measurement": "mortality at higher doses", "setting": "[2]; experiment 1, 1 and 5 mg/kg, no uridine", "value": "dose-dependent increase in mortality"}, {"measurement": "diarrhea in surviving mice", "setting": "[2]; experiment 1, higher doses, no uridine", "value": "showed signs of diarrhea"}, {"measurement": "weight loss", "setting": "[2]; experiment 2, 5 mg/kg with uridine (FIG. 6)", "value": "no weight loss"}, {"measurement": "diarrhea", "setting": "[2]; experiment 2, with uridine", "value": "no mouse had diarrhea"}, {"measurement": "IC50", "setting": "[3]; L1210, L-1210, with 1 mM uridine, read-out: IC50 With 1 mM Uridine", "value": 5, "unit": "µM"}, {"measurement": "IC50", "setting": "[3]; L1210, L-1210, without uridine, read-out: IC50 Without Uridine", "value": 2.8, "unit": "µM"}]}
